Source: ChEMBL document CHEMBL1201862, “PubChem BioAssay data set” (2004)
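1) Cells in 96-well plates. 2) Compound, 48 h, 5 concentrations. 3) Linear interpolation between surrounding doses. 4) Unreached endpoint = highest concentration. GI50 is the concentration that inhibits growth by half.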 The source made the active and inactive calls. No stated cut-off is given here; in the data, active = GI50 up to about 1.1 µM and inactive = higher.

Key:
Assay in all cases: growth of human tumour cells (NCI), 48 h
ACHN = test system: ACHN
EKVX = test system: EKVX
NCI-H460 = test system: NCI-H460
U-251 = test system: U-251
RXF 393 = test system: RXF 393
SN12C = test system: SN12C
SK-MEL-5 = test system: SK-MEL-5
COLO 205 = test system: COLO 205
K562 = test system: K562
Malme-3M = test system: Malme-3M
M14 = test system: M14
OVCAR-8 = test system: OVCAR-8
SF-539 = test system: SF-539
UO-31 = test system: UO-31
HOP-92 = test system: HOP-92
HT-29 = test system: HT-29

Measured: GI50

Cc1c(C)c2cc3c(=O)ccoc3c(C)c2oc1=O
inactive: ACHN > 100 µM | EKVX > 100 µM | NCI-H460 > 100 µM | U-251 > 100 µM | RXF 393 25 µM | SN12C 56.6 µM | SK-MEL-5 > 100 µM | COLO 205 47 µM | K562 > 100 µM | Malme-3M > 100 µM | M14 > 100 µM | OVCAR-8 > 100 µM | SF-539 85.5 µM | UO-31 24.4 µM

COC(=O)N/N=C(\C)c1c(O)cc(C)oc1=O
inactive: ACHN 25.8 µM | HOP-92 > 100 µM | EKVX > 100 µM | NCI-H460 37.8 µM | U-251 28.8 µM | SN12C 78.5 µM | SK-MEL-5 50.8 µM | HT-29 65.3 µM | K562 17.5 µM | Malme-3M > 100 µM | M14 35.2 µM | OVCAR-8 59.3 µM | SF-539 14.7 µM | UO-31 40.1 µM

CCCC/C=C1\CCC(C)(CN(C)C)C1=O (stereo not drawn)
inactive: ACHN > 100 µM | HOP-92 > 100 µM | EKVX > 100 µM | NCI-H460 > 100 µM | U-251 > 100 µM | RXF 393 46.5 µM | SN12C > 100 µM | SK-MEL-5 > 100 µM | HT-29 > 100 µM | K562 > 100 µM | Malme-3M > 100 µM | M14 > 100 µM | OVCAR-8 > 100 µM | SF-539 > 100 µM | UO-31 > 100 µM

Cc1cc(-c2ccccc2)cc2[n+]1CC=C2.[O-][Cl+3]([O-])([O-])[O-]
inactive: ACHN 51.4 µM | HOP-92 15.5 µM | EKVX 54.6 µM | NCI-H460 > 100 µM | U-251 > 100 µM | RXF 393 46.1 µM | SN12C 95.5 µM | HT-29 52.7 µM | COLO 205 > 100 µM | Malme-3M 75 µM | M14 > 100 µM | OVCAR-8 > 100 µM | SF-539 > 100 µM | UO-31 39.4 µM

COC(=O)C12C34C=CC5(CCC6(C=CC1(CC3)O6)C52C(=O)OC)O4 (stereo not drawn)
inactive: ACHN > 100 µM | HOP-92 > 100 µM | EKVX > 100 µM | NCI-H460 > 100 µM | U-251 > 100 µM | RXF 393 75 µM | SN12C > 100 µM | HT-29 > 100 µM | COLO 205 > 100 µM | K562 > 100 µM | Malme-3M > 100 µM | OVCAR-8 > 100 µM | SF-539 > 100 µM

C=CCCCCCCCCCCCC1CCC(CC)N1 (stereo not drawn)
inactive: ACHN 15.7 µM | EKVX 15.5 µM | NCI-H460 17.7 µM | U-251 10.9 µM | RXF 393 4.86 µM | SN12C 11.5 µM | SK-MEL-5 10.2 µM | HT-29 3.67 µM | COLO 205 3.37 µM | K562 4.7 µM | Malme-3M 16.3 µM | M14 12.1 µM | SF-539 10.6 µM | UO-31 11.2 µM

O=C(Nc1c(O)[nH]c(=S)[nH]c1=O)c1ccccc1F
inactive: ACHN > 100 µM | HOP-92 > 100 µM | NCI-H460 > 100 µM | U-251 > 100 µM | SN12C > 100 µM | SK-MEL-5 > 100 µM | HT-29 > 100 µM | COLO 205 > 100 µM | K562 > 100 µM | Malme-3M > 100 µM | M14 > 100 µM | OVCAR-8 > 100 µM | SF-539 > 100 µM | UO-31 > 100 µM

CCCCCCCCCCCCCCCCOC(=O)c1cc(O)cc(C(=O)OCCCCCCCCCCCCCCCC)c1
inactive: ACHN > 100 µM | HOP-92 > 100 µM | EKVX > 100 µM | NCI-H460 > 100 µM | U-251 > 100 µM | RXF 393 > 100 µM | SN12C > 100 µM | SK-MEL-5 > 100 µM | HT-29 > 100 µM | COLO 205 > 100 µM | K562 > 100 µM | Malme-3M > 100 µM | M14 > 100 µM | OVCAR-8 > 100 µM | UO-31 > 100 µM
